Data taken from patent US20220089540A1 (Board of Trustees of Michigan State University, priority 2019, published 2022).

What was measured:
CD206 = CD206 expression in RAW 264.7 cells stimulated with E18-14C-27 conditioned media (immunoblot); type: cell-based, mouse; details: increasing concentrations, 24 hours
Procedure: (§1) RAW 264.7 mouse macrophage-like (ATCC) and E18-14C-27 (Wu et al., Cancer Res. 62, 6376-6380 (2002)) cells were cultured in DMEM supplemented with 10% fetal bovine serum (FBS). RAW 264.7 cells were cultured at 50000/well in a 6 well plate for 24 hours to determine PD-L1 levels. E18-14C-27 cells were cultured for 72 hours in the presence of LG268 for protein levels. Conditioned media was collected from E18-14C-27 at 60-70% confluence for 24 hours; media was then collected and centrifuged at 900 rpm for 5 minutes to eliminate any cell debris.
To explore whether the expression of CD206 in macrophages is dependent on stimulatory factors from tumor cells (e.g., tumor educated macrophages), conditioned media was collected from an established cell line (E18-14C-27 cells) derived from a mammary tumor of an MMTV-Neu mouse. When RAW 264.7 (macrophage-like) cells were stimulated with conditioned media from the E18-14C-27 cancer cells and treated with increasing concentrations of LG268 for 24 hours, a decrease in the expression of CD206 was observed by immunoblotting (FIG. 2E).

CD3 T cells = assay: CD8 subpopulations in isolated spleen CD3 T cells (flow cytometry); type: cell-based, mouse; details: anti-CD3ε, 3 days
Procedure: Cells were cultured for a total of 3 days.
Yellow zombie (Biolegend) staining was used to exclude dead cells.

PD-L1 = PD-L1 induction in macrophages or RAW264.7 cells with cancer cell conditioned media (flow cytometry); type: cell-based, mouse; details: for PD-L1 Levels: Table 4, Control 43.3
Procedure: as §1
For PD-L1 staining, RAW 264.7 cells were plated at 25000 cells/ml in 6 well plates for 24 hours before adding conditioned media from E18-14C-27 and LG268. RAW 264.7 cells were cultured for additional 24 hours with E18-14C-27 conditioned media and LG268. […] THP-1 cells were stained and analyzed for the levels of PD-L1 following the same protocol.
Inhibitory receptors on lymphocytes such as PD-1 (programmed cell death protein 1) are important immune checkpoints that protect against autoimmunity as the interaction between PD-L1 (ligand) and the PD-1 receptor expressed on immune cells suppresses T cell activity. Immuno-oncology is revolutionizing cancer treatment, and enormous research efforts are ongoing to identify drugs that upregulate PD-L1 so that they can be combined with checkpoint inhibitors to boost efficacy. Macrophages or RAW264.7 cells are treated with conditioned media from cancer cells and rexinoids, and PD-L1 expression determined by flow cytometry. Higher numbers indicate better upregulation of PD-LI.
Using methods described herein, macrophages or RAW264.7 cells were treated with selected rexinoids and with conditioned media from cancer cells. Structures of the rexinoids are shown below.
PD-L1 expression was determined by flow cytometry.

tumors of PyMT mice = assay: PyMT mouse model of triple negative breast cancer, treatment until endpoint; type: in vivo
Procedure: To determine if the immune modulation induced by LG268 treatment in MMTV-Neu mice could be extended to a model of triple negative breast cancer (TNBC), the inventors repeated the in vivo studies in PyMT mice. PyMT mice with a tumor volume of 32-64 mm^3 were treated with LG268 (100 mg/kg of diet) or with a control diet until the tumor burden met maximum defined endpoints allowed by the IACUC-approved animal protocol (individual tumor volume <520 mm^3). In mice receiving the control diet, these tumors progressed extremely rapidly so that the average age to reach maximum tumor volume was 31 days.

[1] = Toxicity in A/J mice with lung tumors fed rexinoids plus carboplatin and paclitaxel; type: in vivo; details: 100 mg/kg diet, 7 weeks
Procedure: A/J mice with lung tumors (detected by ultrasound) were fed rexinoids in their diets (at 100 mg/kg diet) and injected twice every other week with carboplatin and paclitaxel.

RAR receptor = details: cited from earlier work
[2] = system: mammary gland tumors of MMTV-Neu mice; assay: MMTV-Neu mouse model of HER2 positive breast cancer, rexinoid in diet
[3] = 100 mg/kg diet, LG268 5 days, bexarotene 10 days, western blot

Cc1cc2c(cc1C1(c3ccc(C(=O)O)cn3)CC1)C(C)(C)CCC2(C)C [LG268]
CD206 expression (CD206): decrease | CD8 naive and central memory cells (CD3 T cells): increased percentage | PD-L1 Levels (PD-L1; 100 nM): 66.7 | PD-L1 Levels (PD-L1; 1000 nM): 77 | PD-L1 levels in RAW 264.7 cells with E18-14C-27C conditioned media (PD-L1; 24 hours): increased levels | average survival (time to maximum tumor volume) (tumors of PyMT mice; 100 mg/kg diet, control 31 days): 49 days | infiltration of CD8 T cells (tumors of PyMT mice; at endpoint): increased infiltration | levels of CD206 and p-STAT3 in whole lysates of the tumors (tumors of PyMT mice; at endpoint): No differences | cells undergoing apoptosis (cleaved caspase 3) (tumors of PyMT mice; immunohistochemistry at endpoint): higher number of cells undergoing apoptosis | p-STAT1 in whole lysates of tumors (tumors of PyMT mice; western blot at endpoint): tendency for lower levels | toxicity findings (liver, triglycerides, cholesterol, fur) [1]: hepatomegaly, with elevated triglycerides and cholesterol | binding to the RAR receptor (RAR receptor): does not bind | PD-1 expression in tumors vs control ([2]; 100 mg/kg diet, 5 days): lower | PD-L1 expression in tumors vs control ([2]; 100 mg/kg diet, LG268 5 days, CW-V-125 10 days, western blot and/or immunohistochemistry): significantly higher | myeloid derived suppressor cells (CD45+, CD11b+, Gr1+) in tumors ([2]; 100 mg/kg diet, LG268 5 days, bexarotene 10 days, control 1.9%): 0.8 % of CD45+ immune cells | mammary tumor size (tumor weight as percentage of total body weight) ([2]; 100 mg/kg diet, LG268 5 days, bexarotene 10 days, control diet 3.2%): 1.1 % of total body weight | cleaved caspase 3 in tumors ([2]; 100 mg/kg diet, LG268 5 days, bexarotene 10 days, immunohistochemistry): increase | reduction of CD206 expression in tumor lysates [2, 3]: 65% | reduction of p-STAT1 expression in whole tumor lysates [2, 3]: 80% | activated CD4 T cells (CD45+, CD3+, CD4+, CD25+) in tumors ([2]; 100 mg/kg diet, control 27.5%): 13.0% | expression of p-STAT3 or p-STAT5 in tumor lysates ([2]; 100 mg/kg diet, western blot): no changes | caliber of the vessels in the tumors ([2]; CD31 immunohistochemistry): reduced | FOXP3 expression in tumors ([2]; immunohistochemistry): decreased | time to complete regression of the tumors ([2]; mouse, in vivo): less than 10 days
